Columns and labels:
[1] = cited from earlier work
[2] = test system: cultured PINK cells; assay: qRT-PCR gene expression in lenalidomide- or pomalidomide-treated cultured PINK cells; assay type: cell-based, human; conditions: treated vs untreated cultured PINK cells
Description: RNA isolation and purification.
Quantitative real-time (qRT-PCR) analysis.

Compound | stability at higher relative humidities [1] | also measured
Nc1cccc2c1CN(C1CCC(=O)NC1=O)C2=O (stereo not shown) [Form B, 3-(4-amino-1-oxo-1,3 dihydro-isoindol-2-yl)-piperidene-2,6-dione] |  | stability in aqueous solvent systems ([1]; aqueous solvent systems): converts to Form E in aqueous solvent systems
Nc1cccc2c1CN(C1CCC(=O)NC1=O)C2=O (stereo not shown) [Form D, 3-(4-amino-1-oxo-1,3 dihydro-isoindol-2-yl)-piperidene-2,6-dione] | will typically convert to Form B | 
Nc1cccc2c1CN(C1CCC(=O)NC1=O)C2=O (stereo not shown) [Form C, 3-(4-amino-1-oxo-1,3 dihydro-isoindol-2-yl)-piperidene-2,6-dione] | can convert to Form B | 
Nc1cccc2c1C(=O)N(C1CCC(=O)NC1=O)C2=O (racemic) [pomalidomide, 4-(Amino)-2-(2,6-dioxo(3-piperidyl))-isoindoline-1,3-dione] |  | Fold change of gene expression, LTA [2]: 2.68 fold

— patent US8263065B2, “Tumor suppression using human placental perfusate and human placenta-derived intermediate natural killer cells” (Anthrogenesis Corporation, priority 2007, dated 2012)
